Values of other authors as cited in patent US20200138792A1, “PHARMACEUTICAL COMBINATIONS OF ZONISAMIDE AND PRAMIPEXOLE, AND RELATED METHODS, FOR TREATING SYNUCLEINOPATHIES” (CHASE THERAPEUTICS CORPORATION, priority 2017, published 2020).

Columns and labels:
[1] = tested on: human neuroblastoma SH-SY5Y cells
alpha-synuclein = alpha-synuclein (Homo sapiens, UniProt P37840)
[2] = biological target: human wild-type alpha-synuclein (Homo sapiens, UniProt P37840); conditions: hydrogen peroxide plus cytochrome c
[3] = 5 mg/day of pramipexole
[4] = tested on: nigrostriatal dopaminergic neurons; conditions: chronic administration
[5] = tested on: nigral TH-positive neurons; conditions: 20 mg/kg, MPTP-treated mice
nigral dopamine neurons = conditions: 30 mg/kg injection, 6-OHDA mice
A53T α-synuclein = biological target: T1, A53T α-synuclein (Homo sapiens, UniProt P37840, A53T); conditions: 40 mg/kg/day oral
T1 construct: host or cells: rat brain in vivo, transduced with a viral vector

[6] = 25 mg-50 mg, alone or with levodopa

Compound: CCCN[C@H]1CCc2nc(N)sc2C1 [pramipexole, (S)-6-propylamino-4,5,6,7-tetrahydro-1,3-benzothiazole-2-amine]
- toxic effects of rotenone on dopaminergic neurons (dopaminergic neurons; mouse PD model): inhibits
- immunoreactivity for alpha-synuclein (dopaminergic neurons; rotenone mouse PD model): reducing
- aggregation of alpha-synuclein [1]: inhibit
- in vitro oligomerization and aggregation of alpha-synuclein (alpha-synuclein): diminishes synuclein oligomer formation
- in vitro oligomerization of human wild-type alpha-synuclein [2]: decreases
- nausea, patients affected [3]: 76%
- vomiting, patients affected [3]: 39%
- patients not able to complete the study ([3]; presumably intolerable GI adverse events): 36%

Compound: NS(=O)(=O)Cc1noc2ccccc12 [zonisamide, 1,2-benzisoxazole-3-methanesulfonamide]
- brain-derived neurotrophic factor content in striatum and ventral midbrain vs saline [4]: increased
- survival of nigrostriatal dopaminergic neurons, striatal dopaminergic terminals and motor function vs saline [4]: improved
- in vitro oligomerization and aggregation of alpha-synuclein (alpha-synuclein): inhibits
- loss of nigral TH-positive neurons [5]: reduced the loss of nigral TH-positive neurons
- striatal dopamine depletion [5]: attenuating the associated striatal dopamine depletion
- loss of nigral dopamine neurons (nigral dopamine neurons): prevented the loss of nigral dopamine neurons
- survival of nigrostriatal dopamine neurons (A53T α-synuclein): no impact
- pace of degeneration vs control group (A53T α-synuclein; four weeks after injection of viral vector for A53T α-synuclein gene): significantly delayed
- motor symptoms in patients with PD [6]: improve motor symptoms
